pIC50: −log10 of the molar value. Values after ≈ are worked out from the molar mass of the structure shown. Like-named read-outs stand apart in the source and are kept apart here.
Tests used:
CYP 2C19 = CYP 2C19 (Homo sapiens, UniProt P33261); assay: Cytochrome P450 inhibition, fluorescence detection; assay type: in vitro ADME
CYP 3A4 = CYP 3A4 (Homo sapiens, UniProt P08684); assay: Cytochrome P450 inhibition, fluorescence detection; assay type: in vitro ADME; conditions: at 10 μM; for CYP 3A4 (BFC) inhibition: substrate benzyloxytrifluoromethylcoumarin; for CYP 3A4 (DBF) inhibition: substrate dibenzylfluorescein
Experimental: The objective of this study was to screen the inhibition potential of the compounds using recombinant human cytochrome P450 enzymes CYP3A4 (BFC and DBF substrates) and probe substrates with fluorescent detection. Incubations were conducted in a 200 μL volume in 96-well microtiter plates (COSTAR 3915). The addition of the mixture buffer-cofactor (KH2PO4 buffer, 1.3 mM NADP, 3.3 mM MgCl2, 0.4 U/mL glucose-6-phosphate dehydrogenase), control supersomes, the Standard inhibitor Ketoconazole (Sigma K1003), and previously diluted compounds to plates was carried out by a liquid handling station (Zephyr Caliper). The plate was then preincubated at 37 °C for 5 min in a 100 μL volume, and reaction was initiated by the addition of a prewarmed enzyme/substrate (E/S) mix. The E/S mix contained buffer (KH2PO4), enzyme (CYP), substrate 7-benzyloxytrifluoromethyl coumarin (7-BFC), and dibenzylfluorescein (DBF) in a reaction volume of 200 μL. Reactions were terminated after various times depending on the substrate by addition of STOP solution (ACN/TrisHCl 0.5 M 80:20 (BFC) or 2 N NaOH for CYP3A4 (DBF). Fluorescence per well was measured using a fluorescence plate reader (Tecan M1000 pro) and percentage of inhibition was calculated.

Microsomal stability = assay type: in vitro ADME, mice; conditions: after 60 min incubation, NADP, 37 °C
Experimental: The human, rat, and mice recombinant microsomes employed were purchased from Tebu–Xenotech. […] Samples (75 μL) were taken from each well at 0, 10, 20, 40, and 60 min and transferred to a plate containing 4 °C 75 μL of acetonitrile and 30 μL of 0.5% formic acid in water were added for improving the chromatographic conditions. The plate was centrifuged ([…], 30 min) and supernatants were taken and analyzed by an ultraperformance liquid chromatograph–tandem mass spectrometer (Xevo-TQD, Waters) by employing a BEH C18 column and an isocratic gradient of 0.1% formic acid in water: 0.1% formic acid acetonitrile (60:40). The metabolic stability of the compounds was calculated from the logarithm of the remaining compounds at each of the time points studied.

[1] = Solubility in 1% DMSO: 99% PBS (nephelometry); assay type: physicochemical; conditions: PBS with 1% DMSO, 1% DMSO: 99% PBS buffer solution, 37 °C
Experimental: A 10 mM stock solution of the compound was serially diluted in 100% DMSO and 1 μL of this solution was added to a 384-well UV-transparent plate (Greiner) containing 99 μL of PBS. The plate was incubated at 37 °C for 2 h and the light scattering was measured in a Nephelostar Plus reader (BMG LABTECH). The data were fitted to a segmented linear regression for measuring the compound solubility.

CYP 2C9 = CYP 2C9 (Homo sapiens, UniProt P11712); assay: Cytochrome P450 inhibition, fluorescence detection; assay type: in vitro ADME; conditions: at 10 μM
human LOX-5 (hLOX-5) = molecular target: T1, human LOX-5 (hLOX-5) (Homo sapiens, UniProt P09917); assay: Inhibition of hLOX-5; assay type: biochemical
T1 construct: purchased Cayman Chemical
T1 sequence (P09917 1-674): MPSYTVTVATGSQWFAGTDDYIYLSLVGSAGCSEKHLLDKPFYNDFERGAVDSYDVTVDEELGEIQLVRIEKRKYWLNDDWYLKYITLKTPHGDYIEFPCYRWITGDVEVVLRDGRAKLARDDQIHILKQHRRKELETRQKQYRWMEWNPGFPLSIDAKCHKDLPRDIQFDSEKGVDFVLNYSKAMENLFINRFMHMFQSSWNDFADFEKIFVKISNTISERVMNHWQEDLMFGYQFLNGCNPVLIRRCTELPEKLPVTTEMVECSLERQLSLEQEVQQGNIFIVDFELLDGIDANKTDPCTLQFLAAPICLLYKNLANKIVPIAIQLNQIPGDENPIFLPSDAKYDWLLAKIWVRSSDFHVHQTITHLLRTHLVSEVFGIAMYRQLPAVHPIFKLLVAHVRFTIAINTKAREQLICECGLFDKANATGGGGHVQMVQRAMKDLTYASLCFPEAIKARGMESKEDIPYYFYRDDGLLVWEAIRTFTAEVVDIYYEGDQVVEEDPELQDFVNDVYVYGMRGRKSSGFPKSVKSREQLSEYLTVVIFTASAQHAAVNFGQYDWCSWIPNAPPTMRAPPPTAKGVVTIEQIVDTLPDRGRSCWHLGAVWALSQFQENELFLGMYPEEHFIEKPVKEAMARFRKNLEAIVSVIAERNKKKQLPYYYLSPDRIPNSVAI
Experimental: AA and 2′,7′-dichlorodihydrofluorescein diacetate (H2DCFDA) were obtained from Sigma. Human recombinant LOX-5 was purchased from Cayman Chemical. For the determination of hLOX-5 activity, the method described by Pufahl et al. was followed.[51] The assay solution consisted of 50 mM Tris (pH 7.5), 2 mM EDTA, 2 mM CaCl2, 3 μM AA, 10 μM ATP, 10 μM H2DCFDA, and 100 mU/well hLOX-5. For the enzyme inhibition studies, the compounds to be tested were added to the assay solution prior to AA and ATP and were preincubated for a period of 10 min at room temperature, after which AA and ATP were added. The enzymatic reaction was carried out for 20 min and terminated by the addition of 40 μL of acetonitrile.

[2] = IC50 calculated for >50% inhibition at 10 μM

Sequence of CYP 2C19 (P33261 whole entry): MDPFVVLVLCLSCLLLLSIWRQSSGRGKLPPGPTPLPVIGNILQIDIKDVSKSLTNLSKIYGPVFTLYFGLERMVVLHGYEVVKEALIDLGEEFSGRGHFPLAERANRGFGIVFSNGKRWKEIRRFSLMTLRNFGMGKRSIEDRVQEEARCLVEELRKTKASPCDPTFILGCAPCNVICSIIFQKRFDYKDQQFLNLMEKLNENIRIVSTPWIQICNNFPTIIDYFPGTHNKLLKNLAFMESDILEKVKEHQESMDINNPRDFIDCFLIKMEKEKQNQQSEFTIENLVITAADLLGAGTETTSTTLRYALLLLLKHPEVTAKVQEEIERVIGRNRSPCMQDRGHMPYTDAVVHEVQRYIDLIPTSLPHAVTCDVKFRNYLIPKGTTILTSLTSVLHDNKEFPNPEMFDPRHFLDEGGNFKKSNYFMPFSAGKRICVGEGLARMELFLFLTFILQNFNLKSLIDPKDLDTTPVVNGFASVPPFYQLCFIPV
Sequence of CYP 3A4 (P08684 whole entry): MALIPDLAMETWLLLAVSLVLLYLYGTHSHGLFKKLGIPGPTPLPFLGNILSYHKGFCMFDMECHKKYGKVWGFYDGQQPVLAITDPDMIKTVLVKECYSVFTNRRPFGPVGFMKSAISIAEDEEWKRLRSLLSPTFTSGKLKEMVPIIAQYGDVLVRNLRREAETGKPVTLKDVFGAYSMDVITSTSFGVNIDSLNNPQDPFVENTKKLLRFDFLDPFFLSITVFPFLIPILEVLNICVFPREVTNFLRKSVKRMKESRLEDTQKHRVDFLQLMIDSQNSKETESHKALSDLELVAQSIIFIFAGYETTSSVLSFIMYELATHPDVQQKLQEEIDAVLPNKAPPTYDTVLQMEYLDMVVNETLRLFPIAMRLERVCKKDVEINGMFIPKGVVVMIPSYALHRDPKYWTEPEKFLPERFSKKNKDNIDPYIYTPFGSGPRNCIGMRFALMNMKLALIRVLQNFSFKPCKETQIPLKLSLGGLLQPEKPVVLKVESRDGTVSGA
Sequence of CYP 2C9 (P11712 whole entry): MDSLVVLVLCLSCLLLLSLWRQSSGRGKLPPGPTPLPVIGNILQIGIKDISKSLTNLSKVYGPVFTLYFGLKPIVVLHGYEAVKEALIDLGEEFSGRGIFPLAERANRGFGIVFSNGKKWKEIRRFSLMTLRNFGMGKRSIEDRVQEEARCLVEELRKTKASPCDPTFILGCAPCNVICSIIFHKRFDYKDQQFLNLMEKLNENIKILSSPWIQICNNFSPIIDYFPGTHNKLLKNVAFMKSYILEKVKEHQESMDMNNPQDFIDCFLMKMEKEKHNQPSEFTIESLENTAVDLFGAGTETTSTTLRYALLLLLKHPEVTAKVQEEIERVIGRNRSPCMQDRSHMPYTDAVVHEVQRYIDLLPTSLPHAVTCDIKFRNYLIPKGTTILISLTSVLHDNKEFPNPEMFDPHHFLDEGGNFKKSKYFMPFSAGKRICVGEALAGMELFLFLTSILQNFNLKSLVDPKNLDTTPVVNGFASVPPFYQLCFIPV

| fold more potency inhibiting the sEH than CYP2C19 (CYP 2C19) [fold] | microsomal stability, percentage of remaining compound (mice) (Microsomal stability) [%] | solubility at 2 h [1] [µM] | pIC50 (human LOX-5 (hLOX-5)) | SMILES | pIC50 (CYP 2C19) | pIC50 (CYP 2C19; [2]) | CYP 3A4 (BFC) inhibition (CYP 3A4) [%] | CYP 3A4 (DBF) inhibition (CYP 3A4) [%] | CYP 2C9 inhibition (CYP 2C9) [%] | inhibition of hLOX-5 (selectivity) (human LOX-5 (hLOX-5)) |
| --- | --- | --- | --- | --- | --- | --- | --- | --- | --- | --- |
| 2000 | 10 | 4 (≈ 1.95 µg/mL) | < 4.00 | CC12CC3CC(NC(=O)N[C@H]4CC[C@H](Oc5ccc(C(=O)O)cc5)CC4)(CC(C1)c1ccccc13)C2 [Compound 20, 4-[((1r,4r)-4-(3-(9-Methyl-5,6,8,9,10,11-Hexahydro-7H-5,9:7,11-dimethanobenzo[9]annulen-7-yl)ureido)cyclohexyl)oxy]benzoic Acid] | ~5.70 | 5.72 | 2 ± 2 | 14 ± 1 | 17 ± 3 | Neither 20 nor the halogenated analogues 22 and 23 significantly inhibited |
| – | 36 | 7 (≈ 3.45 µg/mL) | < 4.00 | O=C(NC12CC3CC(F)(CC(C1)c1ccccc13)C2)N[C@H]1CC[C@H](Oc2ccc(C(=O)O)cc2)CC1 [Compound 23, 4-[((1r,4r)-4-(3-(9-Fluoro-5,6,8,9,10,11-hexahydro-7H-5,9:7,11-dimethanobenzo[9]annulen-7-yl)ureido)cyclohexyl)oxy]benzoic Acid] | – | – | – | – | – | Neither 20 nor the halogenated analogues 22 and 23 significantly inhibited |

| SMILES | fold more potency inhibiting the sEH than CYP2C19 (CYP 2C19) [fold] | microsomal stability, percentage of remaining compound (mice) (Microsomal stability) [%] | solubility at 2 h [1] [µM] | pIC50 (human LOX-5 (hLOX-5)) | pIC50 (CYP 2C19) | pIC50 (CYP 2C19; [2]) | CYP 3A4 (BFC) inhibition (CYP 3A4) [%] | CYP 3A4 (DBF) inhibition (CYP 3A4) [%] | CYP 2C9 inhibition (CYP 2C9) [%] | inhibition of hLOX-5 (selectivity) (human LOX-5 (hLOX-5)) |
| --- | --- | --- | --- | --- | --- | --- | --- | --- | --- | --- |
| O=C(NC12CC3CC(Cl)(CC(C1)c1ccccc13)C2)N[C@H]1CC[C@H](Oc2ccc(C(=O)O)cc2)CC1 [Compound 22, 4-[((1r,4r)-4-(3-(9-Chloro-5,6,8,9,10,11-hexahydro-7H-5,9:7,11-dimethanobenzo[9]annulen-7-yl)ureido)cyclohexyl)oxy]benzoic Acid] | – | 29 | 13 (≈ 6.62 µg/mL) | < 4.00 | ~5.70 | 5.66 | 1 ± 2 | 52 ± 4 | 31 ± 3 | – |
